This note sets out measurements from publication PMC8605905 (Oxidative Medicine and Cellular Longevity, 2021).

Assay [1] concerns CRE-GFP 293 cells. Nature of the assay: CRE-GFP 293 reporter cell assay (flow cytometry). Format: cell-based, Human. The following applies: 10 μM, 5 h, in the presence of Ca2+ ionophore (2 μM). An excerpt: Using the pCRE-MetLuc2-Reporter plasmid (Clontech, Mountain View, CA, USA) as a template, the DNA fragment containing the cAMP response element (CRE) motifs and TATA-like promoter (PTAL) flanked by MluI and AgeI restriction sites was amplified by PCR using sense ([…], MluI site underlined) and antisense ([…], AgeI site underlined) primers. The amplified CRE-PTAL promoter fragment was cloned into pGEM-T Easy (Promega, Madison, WI, USA) and sequenced. The CRE-PTAL-containing MluI/AgeI fragment and GFP-containing AgeI/NotI fragment (from pEGFP-N1; Clontech) were subcloned into MluI- and NotI-digested pcDNA5/FRT/TO (Novagen, Madison, WI, USA). The resulting construct with CRE-PTAL-driving GFP was used to establish 293 GFP reporter cells by targeting insertion into Flp-In-293 cells according to the supplier's instructions (Invitrogen). The cells were grown in a medium containing 5 μg/ml blasticidin and 100 μg/ml hygromycin.
On day 1, CRE-GFP 293 cells were seeded into 48-well plates (5 × 10^4/well). After 24 h, cells were treated with Ca^2+ ionophore (2 μM) (Sigma-Aldrich) for 0–24 h. Cell viability was measured using 3,(4,5-dimethylthiazol-2-yl)-2,5-diphenyltetrazolium bromide (MTT) assay (Sigma-Aldrich). The absorbance of the insoluble purple formazan dye was quantified at 570 nm on a μQuant microplate spectrophotometer (Bio-Tek). In addition, the cells were treated with the Ca^2+ ionophore A23187 (0.5–10 μM) (Sigma-Aldrich) for 5 h, followed by analysis of GFP fluorescence by flow cytometry (Becton–Dickinson, Franklin Lakes, NJ, USA) with excitation/emission wavelengths at 488/507 nm. To monitor CREB activation, cells were treated with forskolin or coumarin-chalcone derivatives (5–10 μM) in the presence or absence of Ca^2+ ionophore (2 μM) for 5 h, and GFP fluorescence was analysed.
(§1) To monitor the cAMP-mediated signal transduction pathway, CRE-GFP 293 cells in 6-well plates (1 × 10^6/well) were pretreated with kinase inhibitor H-89 (LC Laboratories, Woburn, MA, USA), KN-62 (Cayman Chemical, Ann Arbor, MI, USA), U0126 (LC Laboratories), or wortmannin (LC Laboratories) (10 μM) for 4 h before forskolin or LM-021 (10 μM) addition for 5 h. GFP fluorescence/protein and total/phosphorylated PKA, CaMKII, ERK, PI3K, and CREB levels were examined. In addition, Aβ-GFP or ∆K280 tauRD-DsRed SH-SY5Y cells were treated with retinoic acid (10 μM) on day 1, followed by the addition of LM-021 (5 or 10 μM) and doxycycline (5 or 2 μg/ml) on day 2, as described. Kinase inhibitors (10 μM) were added on day 6. On day 8, the cells were collected for protein expression analysis of BDNF, BCL2 (BCL2 apoptosis regulator), and BAX (BCL2 associated X, apoptosis regulator), and total/phosphorylated PKA, CaMKII, ERK, PI3K, and CREB. Also, cells were stained with DAPI and assessed for neurite outgrowth as described above.
In general terms: Flow cytometry measures light scatter and fluorescence of single cells or particles in a stream.

Assay [2] is described as follows: DPPH radical-scavenging assay. Conditions: compounds 10–160 μM, 100 μM DPPH, 30 min, n = 3. The protocol:
Stable free radical 1,1-diphenyl-2-picrylhydrazyl (DPPH) (Sigma-Aldrich) was applied to test the potential radical-scavenging activity of the coumarin-chalcone derivatives. In brief, the compounds (10–160 μM) were added to an ethanol solution containing 100 μM DPPH. The mixture was vortexed for 15 sec, left to stand for 30 min at room temperature, and scavenging capacity was measured at a wavelength of 517 nm using a Multiskan GO microplate spectrophotometer (Thermo Fisher Scientific, Waltham, MA, USA).

Assay [3] relates to caspase 1. Nature of the assay: Caspase 1 activity in Aβ-GFP cells. In kind it is cell-based, Human. The following applies: 5 μM, vs untreated cells. The procedure: (§2) Aβ-GFP or ∆K280 tauRD-DsRed SH-SY5Y cells were seeded into 6-well plates (5 × 10^5/well) and treated with retinoic acid, coumarin-chalcone derivatives, and doxycycline as previously described. On day 8, cells were collected and lysates were prepared with six freeze/thaw cycles. The supernatant was collected by centrifugation, followed by measurement of the caspase 1 activity in 50 μg aliquots of cell extract using the ICE fluorometric assay kit (BioVision, Milpitas, CA, USA). Following incubation of the mixture at 37°C for 2 h, fluorescence was measured with excitation/emission wavelengths at 400/505 nm (FLx800 fluorescence microplate reader). In addition, the collected cells were lysed by sonication. Acetylcholinesterase (AChE) activity in the supernatant was determined in 10 μg aliquots of cell extracts using the AChE activity assay kit (Sigma-Aldrich) according to the manufacture's protocol. Finally, the absorbance at 412 nm was measured using a Multiskan GO spectrophotometer (Thermo Fisher Scientific).

In assay [4] the test system is Aβ-GFP SH-SY5Y cells. Nature of the assay: High content analysis of neurite outgrowth in Aβ-GFP cells. Format: cell-based, Human. Conditions: 5 μM. The procedure:
On day 1, Aβ-GFP or ∆K280 tauRD-DsRed SH-SY5Y cells were plated into 24-well plates (6 × 10^4/well) followed by addition of retinoic acid. On day 2, cells were treated with coumarin-chalcone derivatives (5 or 10 μM) and with doxycycline (5 or 2 μg/ml) to induce the expression of Aβ-GFP or ∆K280 tauRD-DsRed. On day 8, 4% paraformaldehyde, 0.1% Triton X-100, and 3% BSA were used to fix, permeabilize, and block cells, respectively. Subsequently, the cells were stained with TUBB3 (neuronal class III β-tubulin) primary antibody (1 : 1000; Covance, Princeton, NJ, USA) at 4°C overnight. Goat anti-rabbit Alexa Fluor 555 secondary antibody (1 : 1000; Thermo Fisher Scientific) was then added, followed by a 3 h incubation at room temperature. Following staining nuclei with 4′,-6-diamidino-2-phenylindole (DAPI) (0.1 μg/ml; Sigma-Aldrich), the neurons were imaged by using the HCA system and analysed by using the Neurite Outgrowth Application Module (MetaXpress; Molecular Devices).
as §1

Assay [5] has as its system Acetylcholinesterase (AChE). Nature of the assay: AChE activity in Aβ-GFP cells. In kind it is cell-based. Conditions: 5 μM, vs untreated cells. The protocol: as §2
The subject of assay [6] is Aβ-GFP SH-SY5Y cells. Nature of the assay: High content analysis of Aβ-GFP fluorescence. In kind it is cell-based, Human. The procedure:
Human neuroblastoma SH-SY5Y-derived Aβ-GFP [23] and ∆K280 tauRD-DsRed cells were kept in DMEM/nutrient mixture F12 (DMEM/F12) containing 10% FBS, 5 μg/ml blasticidin, and 100 μg/ml hygromycin (InvivoGen, San Diego, CA, USA). Doxycycline (Sigma-Aldrich) was applied to induce the expression of Aβ-GFP (5 μg/ml doxycycline) or ∆K280 tauRD-DsRed (2 μg/ml doxycycline).
On day 1, Aβ-GFP or ∆K280 tauRD-DsRed SH-SY5Y cells were seeded into 96-well plates (2.5 × 10^4/well) and treated with retinoic acid (10 μM; Sigma-Aldrich) to prompt neuronal differentiation. […] Image Acquisition and Analysis Software (MetaXpress) (Molecular Devices, Sunnyvale, CA, USA) was used to analyse the images. CellROX Orange (5 μM; Molecular Probes, Eugene, OR, USA) (for Aβ-GFP cells) or dichloro-dihydro-fluorescein diacetate (DCFH-DA, 10 μM; Invitrogen) (for ∆K280 tauRD-DsRed cells) was added to the cells and incubated at 37°C for 30 min.

In assay [7] the test system is Aβ-GFP SH-SY5Y cells. Nature of the assay: Real-time PCR of Aβ-GFP RNA. Conditions: 5 μM. In kind it is cell-based, Human. The procedure: To measure the Aβ-GFP/tauRD-DsRed RNA expression on day 8, total RNA was extracted from collected cells and reverse-transcribed to cDNA (SuperScript III reverse transcriptase; Invitrogen, Waltham, MA, USA). Real-time quantitative PCR was performed using 100 ng of cDNA and the gene-specific TaqMan fluorogenic probe PN4331348 (EGFP) or customized Assays-by-Design probe for DsRed and 4326321E (HPRT1) (StepOnePlus Real-time PCR system, Applied Biosystems, Foster City, CA, USA). The RNA expression level was calculated using the formula 2^ΔCt, ΔCT = CT (control) − CT (target), in which CT indicates the cycle threshold.
A general note: Real-time PCR tracks product formation cycle by cycle.

Assay [8] deals with Aβ-GFP SH-SY5Y cells. Briefly: ROS assay (CellROX Orange) in Aβ-GFP cells. Conditions: tested 1.2–5 μM. In kind it is cell-based, Human. The protocol: On day 1, Aβ-GFP or ∆K280 tauRD-DsRed SH-SY5Y cells were seeded into 96-well plates (2.5 × 10^4/well) and treated with retinoic acid (10 μM; Sigma-Aldrich) to prompt neuronal differentiation. […] On day 8, cells were stained with Hoechst 33342 (0.1 μg/ml; Sigma-Aldrich) for 30 min, and cell images were automatically captured at excitation/emission wavelengths of 482/[…] (GFP fluorescence) or 543/593 nm (DsRed fluorescence) using a high content analysis (HCA) system (Micro Confocal High-Content Imaging System). Image Acquisition and Analysis Software (MetaXpress) (Molecular Devices, Sunnyvale, CA, USA) was used to analyse the images. CellROX Orange (5 μM; Molecular Probes, Eugene, OR, USA) (for Aβ-GFP cells) or dichloro-dihydro-fluorescein diacetate (DCFH-DA, 10 μM; Invitrogen) (for ∆K280 tauRD-DsRed cells) was added to the cells and incubated at 37°C for 30 min. The HCA system was used to measure intracellular ROS at 531/593 nm (CellROX Orange fluorescence) or 482/536 nm (DCFH-DA fluorescence) of excitation/emission wavelengths.

With `C=C[C@@]1(C)CC(=O)[C@]2(O)[C@@]3(C)[C@@H](O)CCC(C)(C)[C@@H]3[C@H](O)[C@H](OC(C)=O)[C@@]2(C)O1` [Forskolin, forskolin], the “CRE-motif-driven GFP expression” value is given as “significantly increased” in assay [1] and “significantly activated” in assay [1] (listed as forskolin).

For `O=c1c(O)c(-c2ccc(O)cc2)oc2cc(O)cc(O)c12` [Kaempferol, kaempferol, reference compound], the EC50 (commonly the concentration giving half of the maximal effect) in assay [2] worked out at 28 µM.

On to `COc1cc(/C=C/C(=O)CC(=O)/C=C/c2ccc(O)c(OC)c2)ccc1O` [Curcumin, reference compound], for which, in assay [3], the “Caspase 1 activity” value is recorded as “reduced”. Besides, in assay [4], the “Neurite length, processes, and branches” value is on record as “successfully ameliorated”. The AChE activity result in assay [5] was “reduced”. Also, the EC50 in assay [6] (Homo sapiens, SH-SY5Y, read-out: EC50 in Aβ aggregation inhibition (GFP fluorescence)) came to 6.1 µM. The “Concentration significantly augmenting green fluorescence intensity (Aβ-GFP)” value in assay [6] (tested 1.2–5 μM, day 8) is 2.5 to 5 µM. Moreover, the “Aβ-GFP RNA levels” value in assay [7] is reported as “did not significantly modify”. Moreover, the “Concentration effectively decreasing ROS levels caused by Aβ overexpression” value in assay [8] fell in the range of 2.5 to 5 µM.
